Data from PMC10711598, “Erythromycin, retapamulin, pyridoxine, folic acid, and ivermectin inhibit cytopathic effect, papain-like protease, and M^PRO enzymes of SARS-CoV-2” (Frontiers in Cellular and Infection Microbiology, 2023).

How the values were obtained:
SARS-CoV-2 [1] = system: SARS-CoV-2; design: method as in Caly et al., 2020; conditions: inhibition of viral replication; ref Caly et al., 2020; cited from earlier work
[2] = target: SARS-CoV-2 papain-like protease (Severe acute respiratory syndrome coronavirus 2, UniProt P0DTD1); test: SensoLyte 520 SARS-CoV-2 papain-like protease activity assay; assay type: biochemical; conditions: for Maximal inhibition of PP (%): maximal observed within tested dose range (2.5-10 µM; pyridoxine 5-20 µM); for Dose at maximal observed inhibition of PP: within tested dose range
SARS-CoV-2 [3] = test: Inhibition of SARS-CoV-2-induced CPE in Vero cells (neutral red assay); assay type: cell-based; conditions: for Maximal inhibition of CPE (%): MOI 0.1, 48 h, maximal observed within tested dose range (5-10 µM; pyridoxine 10-20 µM); for IC50: Severe acute respiratory syndrome coronavirus 2, three-parameter model, responses constrained to 0-100%; for Dose at maximal observed inhibition of CPE: within tested dose range
[4] = target: SARS-CoV-2 main protease (MPRO or 3CL) (Severe acute respiratory syndrome coronavirus 2, UniProt P0DTD1); test: SensoLyte 520 SARS-CoV-2 MPRO activity assay; assay type: biochemical; conditions: for Maximal inhibition of MPRO (%): maximal observed within tested dose range (2.5-10 µM; pyridoxine 5-20 µM); for Dose at maximal observed inhibition of MPRO: within tested dose range
Vero cells = test: Toxicity of the drugs alone to Vero cells (cell toxicity study); conditions: all tested doses

Molecule	Reduction in viral load (SARS-CoV-2 [1])	Maximal inhibition of PP (%) [2] [%]	Dose at maximal observed inhibition of PP [2] [µM]	Maximal inhibition of CPE (%) (SARS-CoV-2 [3])	Maximal inhibition of MPRO (%) [4] [%]	Dose at maximal observed inhibition of MPRO [4] [µM]	IC50 (SARS-CoV-2 [3]) [µM]	Dose at maximal observed inhibition of CPE (SARS-CoV-2 [3]) [µM]	Toxicity to Vero cells (Vero cells)
Ivermectin	up to 5,000 fold	34.34	10	10	38.07	5.0			
CC[C@H]1OC(=O)[C@H](C)[C@@H](O[C@H]2C[C@@](C)(OC)[C@@H](O)[C@H](C)O2)[C@H](C)[C@@H](O[C@@H]2O[C@H](C)C[C@H](N(C)C)[C@H]2O)[C@](C)(O)C[C@@H](C)C(=O)[C@H](C)[C@@H](O)[C@]1(C)O [Erythromycin]		29.46	10.0	76	30.51	2.5	3.27	10	
Nc1nc2ncc(CNc3ccc(C(=O)N[C@@H](CCC(=O)O)C(=O)O)cc3)nc2c(=O)[nH]1 [Folic Acid]		31.99	5	42	26.8	2.5		5	not found to be toxic
Cc1ncc(CO)c(CO)c1O [Pyridoxine]		17.46	20.0	63	45.17	20.0	9.29	20	
C=C[C@]1(C)C[C@@H](OC(=O)CS[C@@H]2C[C@H]3CC[C@@H](C2)N3C)[C@]2(C)[C@H](C)CC[C@]3(CCC(=O)[C@H]32)[C@@H](C)[C@@H]1O [Retapamulin]		20.60	5	75	33.37	2.5	4.23	7.5	
